Measured values published in US12529108B2, “Compositions, methods and kits for characterizing and screening for small cell ovarian carcinoma” (THE TRANSLATIONAL GENOMICS RESEARCH INSTITUTE, priority 2014, dated 2026).

Tests used:
[1] = test system: SMARCA4/A2 negative SCCOHT cell lines BIN67 and SCCOHT1; assay: High-throughput screen of epigenetic agents, cell viability (CellTiter Glo); format: cell-based, human; conditions: 3-fold 20-point dilution series, viability 3 days after treatment (FIG. 21)
Description: FIG. 21 depicts SCCOHT sensitivity to epigenetic agents. Cells plated at 1,000 cells/well in a 384-well plate were treated with indicated agents using a serial 3-fold 20-point dilution series. Cell viability was measured 3 days after treatment using CellTiter Glo. Surviving cells were measured and normalized to DMSO-treated cells and IC50s calculated by curve-fitting.
Thus, as in MRTs, targeting epigenetic modifications may have therapeutic potential in SCCOHT. To evaluate the activity of a panel of epigenetic drugs in SCCOHT we performed high-throughput screening in the SMARCA4/A2 negative SCCOHT cell lines BIN67 and SCCOHT1. Effects of epigenetic modifiers from all main classes of epigenetic agents—modifiers of acetylated histones as well as inhibitors of DNA methylation, histone methyltransferases and HDACs—are shown in FIG. 21. BIN67 and SCCOHT1 cells are […] sensitive to many of these agents. […] We have found HDAC2 to be overexpressed in most SCCOHTs including these cell lines.

[2] = test system: BIN67; assay: Pilot compound screen (LOPAC and Prestwick libraries), cell viability (CellTiter Glo); format: cell-based, human; conditions: 5 μM and 10 μM; viability at 72 hours post-treatment; shared hits from HepG2 counterscreen filtered out
Description: The BIN67 cell line has been characterized for optimal growth conditions, doubling time, cell seeding density, FBS concentration, siRNA transfection conditions (transfection reagent and lipid-to-siRNA ratio to achieve transfection efficiency of 95% or higher), and DMSO tolerance. We have also banked large numbers of BIN67 cells from the same passage to facilitate future screening. Furthermore, we have performed pilot compound and RNAi screens on this cell line.
In BIN67 we screened the LOPAC and Prestwick chemical libraries, diverse libraries of small molecules with good bioavailability and toxicity profiles. These libraries contain 2,400 drugs with subsets of FDA-approved drugs and pharmacologically active compounds. We completed 2 runs in BIN67 with duplicates at concentrations of 5 μM and 10 μM and measured cell viability at 72 hours post-treatment with CellTiter Glo (Promega). The high quality screen was exceeded NIH standards with covariance <5% and Z′-factor 0.83-0.91. […] Notable classes of lead compounds enriched in these hits included 9 cardiac glycosides, 6 tubulin polymerization inhibitors, 2 topoisomerase II inhibitors, and 2 Src/FGFR family kinase inhibitors. In particular, the tubulin inhibitors vincristine and […] are currently used clinically for SCCOHT patients. This serves as a positive confirmation for the robustness and reliability of our screen.

[3] = test system: SCCOHT cell lines; assay: FGFR compounds profiling in a drug dose-dependent manner, cell viability; format: cell-based; conditions: Homo sapiens; both SCCOHT cell lines (FIG. 22B)
Description: FIGS. 22A and 22B show the characterization of FGFR and MERTK inhibition in BIN67 cell line. […] Four unique sequences per target were tested; GFP sequence is used as a negative scramble control. Cell viability was measured using CellTiter Glo.
Our finding of FGFRs as synthetic lethal targets, in both our HT-RNAi and compound pilot screens, in SCCOHT is novel. […] As we also identified FGFR inhibitors in our pilot compound screen, we further tested 8 FGFR inhibitors in vitro.

[4] = test system: SMARCA2 protein; assay: SMARCA2 protein level by Western blotting after HDAC inhibitor treatment; format: cell-based, human; conditions: BIN67 and SCCOHT1 cells; Western blotting (FIG. 18B)
Description: FIGS. 18A-18D depict characterization of SMARCA4/A2 expression in SCCOHT cell lines. […] FIGS. 18C and 18D show Lentivirus-based re-expression of SMARCA4/A2 in BIN67 cells inhibits cell growth.
To understand the roles of these two mutually exclusive ATPases in SCCOHT etiology, we will elucidate the epigenetic consequences of re-expression of one or both SWI/SNF complex ATPases in SCCOHTs.

Structure (SMILES): C/C=C1\NC(=O)[C@H]2CSSCC/C=C/[C@H](CC(=O)N[C@H](C(C)C)C(=O)N2)OC(=O)[C@H](C(C)C)NC1=O [Rombidepsin, Romidepsin]
- sensitivity of SCCOHT cells to epigenetic agents [1]: most sensitive

Structure (SMILES): COc1cc([C@@H]2c3cc4c(cc3[C@@H](O[C@@H]3O[C@@H]5CO[C@@H](C)O[C@H]5[C@H](O)[C@H]3O)[C@H]3COC(=O)[C@H]23)OCO4)cc(OC)c1O [etoposide]
- hypersensitivity (screen hit) of BIN67 [2]: hypersensitivity

Structure (SMILES): Cc1ccc(C(=O)Nc2ccc(CN3CCN(C)CC3)c(C(F)(F)F)c2)cc1C#Cc1cnc2cccnn12 [ponatinib]
- IC50 [3]: 0.005 to 0.333 µM

Structure (SMILES): CC(/C=C/C(=O)NO)=C\[C@@H](C)C(=O)c1ccc(N(C)C)cc1 [trichostatin A]
- upregulation of SMARCA2 protein [4]: dose-dependent upregulation

Structure (SMILES): CC[C@]1(O)C[C@H]2CN(CCc3c([nH]c4ccccc34)[C@@](C(=O)OC)(c3cc4c(cc3OC)N(C=O)[C@H]3[C@@](O)(C(=O)OC)[C@H](OC(C)=O)[C@]5(CC)C=CCN6CC[C@]43[C@@H]65)C2)C1 [vincristine]
- hypersensitivity (screen hit) of BIN67 [2]: hypersensitivity
